Reference: patent publication US20220088031A1, “METHODS AND COMPOSITIONS FOR TREATING RESISTANT AND RECURRENT FORMS OF CANCER” (Health Research, Inc., priority 2019, published 2022)

Tested on: RC-77 T/E cells
Assay: Cell death, DEVDase activity and CC expression in a second AA PCa cell line
Assay type: cell-based, human
Conditions: both AA PCa cell lines; for CC expression / caspase-3 activity: DOC with or without inhibitor, 24 hrs; for cell death: not as effective as in CA PCa cells
Description: Immunoblotting: Immunoblotting was performed as described previously. Protein lysates were prepared using a lysis in NP-40 buffer (50 mM Tris-HCl pH 7.4, 150 mM NaCl, 1 mM EDTA, 1 mM EGTA, 1% NP-40) supplemented with protease and phosphatase inhibitor cocktail. Protein content was quantified using a micro BCA protein estimation kit (Thermo Scientific, Waltham, Mass.; Cat #23235). Protein samples were resolved on 4-20% Criterion gels, transferred on nitrocellulose membranes (BioRad, Hercules, Calif.) and subjected to immunoblotting. Membranes were blocked in 5% fat free dry milk (Blotto, Santa Cruz, Dallas, Tex.; Cat #sc-2324) prepared in PBS-T (Tween-20) and incubated overnight in primary antibodies (1:1000 dilution) at 4° C. with continuous shaking. After washing with PBS-T, membranes were incubated in HRP conjugated anti-mouse or anti-rabbit secondary antibody at room temperature for 1 hr. After washing with PBS-T, proteins were detected using Clarity chemiluminescent reagent (BioRad, Hercules, Calif.; Cat #1705061) and X-Ray films (ASI, Fort Lauderdale, Fla.; Cat #XR1570). Membranes were stripped using stripping buffer and probed with HRP conjugated beta-actin antibody to ensure equal loading of proteins.
Cell viability assay: PCa cells (5×10^4 cells/well) were seeded on 6-well cell culture plates and incubated with DOC (1-20 nM) for 24 hrs. Floating and attached cells were collected using trypsinization. Live and dead cells were counted under a light microscope using a trypan blue exclusion assay.
Caspase-3 (DEVDase) activity assay: PCa cell lysates prepared in NP40 lysis buffer were incubated with DEVD-AFC (caspase-3 substrate) at 37° C. for 90 min in caspase activity assay buffer (50 mM HEPES pH 7.4, 150 mM NaCl, 1% CHAPS, 1 mM EDTA, 1 mM DTT, 50% glycerol). Fluorescence intensity was detected using a Synergy microplate reader at excitation and emission wavelengths of 400 nm and 508 nm, respectively. Arbitrary fluorescence units were normalized with protein content of cell lysates and represented as fold change compared to control groups.

| SMILES | CC expression | caspase-3 activity | cell death |
| --- | --- | --- | --- |
| CCc1ccc(/C=C2/SC(=S)NC2=O)cc1 [c-Myc inhibitor, 10058-F4] | induced CC expression | activated caspase-3 activity | enhanced cell death |
| Cc1ccc(NCCCc2ccccc2)c(N)c1 [NF-κB inhibitor, JSH-23] | induced CC expression | activated caspase-3 activity | enhanced cell death |
